Starred links: 1 amine or outer side, 2 acyl side, 3 side chain; linkers in the order of their positions; H or OH if unused. Positions of bridges follow the written chain, without caps; N, C: chain ends. Non-standard residues stand in square brackets, D forms with d. Residues, ends and D or L forms follow the SMILES beside them. Chains are numbered I, II in the order given. *: point of attachment. X3 = NCCOCCOCCNC(=O)CN1CCN(CC(=O)NCCOCCOCCN[*:1])CCN(CC(=O)NCCOCCOCCN)CCN(CC(=O)NCCOCCOCCN[*:2])CC1; X2 = CC(C)C[C@H](N[*:1])[C@H](O)CC(=O)[*:2]; Sta = CC(C)C[C@H](N)[C@@H](O)CC(=O)O; Isovaleryl = CC(C)CC(=O)*
Columns and labels:
[1] = target: T1, Cathepsin D (Homo sapiens, UniProt P07339); test: Cathepsin D enzyme assay; assay type: biochemical
T1 construct: purchased Biomol Se-199
T1 sequence (P07339 65-412): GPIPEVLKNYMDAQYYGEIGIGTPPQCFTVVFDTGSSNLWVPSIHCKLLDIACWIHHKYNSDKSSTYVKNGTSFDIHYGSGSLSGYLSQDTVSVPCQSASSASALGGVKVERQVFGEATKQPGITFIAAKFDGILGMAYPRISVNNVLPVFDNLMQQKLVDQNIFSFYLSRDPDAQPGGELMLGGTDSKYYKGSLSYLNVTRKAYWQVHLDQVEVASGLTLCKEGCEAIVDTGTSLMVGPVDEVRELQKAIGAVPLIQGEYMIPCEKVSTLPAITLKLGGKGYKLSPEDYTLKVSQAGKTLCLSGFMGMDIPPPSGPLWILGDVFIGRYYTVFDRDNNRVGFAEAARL
Experimental: For quantification of Cathepsin D inhibitory activity, an enzymatic assay was used that measures the turnover of a quenched, fluorescenctly-labeled, Cathepsin D-cleavable, peptide substrate over time.
Specifically, 13 ng of purified Cathepsin D enzyme (Biomol; Cat.No. Se-199) was administered per well of a 96 well plate, substance/inhibitor of interest was added and the mixture incubated for 10 min. at 37° C. Then, the enzymatic reaction was started by addition of fluorescenctly-labeled, Cathepsin D-Substrat ([…] (7-Methoxycoumarin-4-yl)-acetyl-Pro-Leu-Gly-Leu-(3 [2,4-dinitrophenyl]-L-2,3-diaminopropionyl)-Ala-Arg-NH2 (Bachem M-1895). The reaction volume amounts to 30 μl and contains 50 mM acetic acid, 200 mM NaCl and 0.003% Brij 35 and was adjusted to pH 4.5 with acetic acid. By cleavage of the peptide chain, the […] is released and the emission of fluorescence dye is measured using excitation/emission wavelengths ([…]) on a Tecan Spectrafluor Plus—instrument at 37° C. for 10 min. For the determination of the compound dose response, a 10 mM DMSO stock solution was diluted and tested in a ten-point, three-fold dilution series run in duplicate beginning at 30 μM final concentration. Data were analyzed using a four-parameter curve fit with a fixed minimum and maximum experimentally defined as the average positive and negative controls on each plate.

[2] = tested on: pig articular cartilage explants; test: Ex vivo GAG release model with pig articular cartilage explants; assay type: cell-based; conditions: explants pre-incubated with 1 μM inhibitor 24 h, then washed
[3] = Solubility in phosphate buffer; assay type: physicochemical; conditions: phosphate buffer at pH 7.4; read-out: solubility
[4] = Solubility in DMSO after lyophilization; assay type: physicochemical
Experimental: 1 equiv. […] DIPEA (10 λl, 60 μmol). The reaction mixture was stirred under argon at room temperature for 2 days. The solvent was directly purified by preparative HPLC to give HHY-328 (4.3 mg, Yield: 22.6%) as a white powder.

[5] = T1 of contrast agent in DPBS; assay type: physicochemical; conditions: 0.2 mM in DPBS
Experimental: To explore the potential of cartilage targeting agents as practical MRI contrast agents for accurate diagnostic imaging, we investigated HHY-316Gd in vivo with healthy rats. As an essentially non-binding control, contrast agent HHY-341Gd (T1=1368±10 ms, 0.2 mM in DPBS) with the non-binding scrambled peptide sequence YRLGRW and acetylated amine groups was used as reference. MRI was performed using a 4.7 T Bruker BioSpec whole body MR imager. Male skeletally mature Lewis rats were anesthetized (by Isoflurane), fixed in supine position and both knees were placed within a transmitting/receiving wrist coil. […] In the HHY-316Gd applied knees there is a significant MRI signal enhancement of the articular and growth plate cartilages which consist principally of collagen II and proteoglycan. The signal intensity (SI) in the articular cartilage and growth plate increased 86% and 77% after 24 hours following administration of HHY-316Gd and increased 84% and 85% at 72 hours after intra-articular injection, respectively (FIGS. 6-11). […]
To assist histological examination of joint slices after termination of the study, we decided to co-administer a second probe, HHY-338 (T1=11493±27 ms, 0.2 mM in DPBS), containing a Cy5.5 moiety. […] Chondrophyte/osteophyte regions were examined in sections stained with safranin O/fast green and recorded using a Zeiss Miraxscan microscope (FIG. 12b).

Question: With `CC(=O)N[C@@H](Cc1c[nH]c2ccccc12)C(=O)N[C@@H](Cc1ccc(O)cc1)C(=O)N[C@@H](CCCNC(=N)N)C(=O)NCC(=O)N[C@@H](CCCNC(=N)N)C(=O)N[C@@H](CC(C)C)C(=O)NCCOCCOCCNC(=O)CN1CCN(CC(=O)NCCOCCOCCN)CCN(CC(=O)NCCOCCOCCNC(=O)C[C@@H](O)[C@H](CC(C)C)NC(=O)[C@H](C)NC(=O)C[C@H](O)[C@H](CC(C)C)NC(=O)[C@@H](NC(=O)[C@@H](NC(=O)CC(C)C)C(C)C)C(C)C)CCN(CC(=O)NCCOCCOCCN)CC1` [HHY-327, AcWYRGRL-DOTA-Pepstatin A] (I: Ac-WYRGRL / II: Isovaleryl-VV[Sta]A[X2]; linker I:C-II:C via X3) as the compound, how does the IC50 [1] read?
Answer: The IC50 was 2.1 nM.

Question: And the “inhibition of GAG release” value ([2]; 24 hours after stimulation at pH 5.0)?
Answer: The value was 41%.

Question: What about the “inhibition of GAG release” value ([2]; 48 hours after stimulation at pH 5.0) of the same compound?
Answer: The value was “no differentiating effect”.

Question: And the “effect on acid-stimulated GAG release / degradation (FIG. 3)” value ([2]; pH 5.0)?
Answer: Its value is “very impressive effect”.

Question: And the solubility [3]?
Answer: The solubility was > 5920 µg/mL.

Question: For AcWYRGRL-DOTA-(Pepstatin A)3 [HHY-328], which “solubility in DMSO” value [4] is on record?
Answer: The value was “only slightly soluble”.

Question: With AcWYRGRL-DOTA-Cy5.5-[Gd3+] [HHY-338] as the compound, how does the T1 [5] read?
Answer: Its T1 is 11493 ± 27 ms.

Question: Which T1 [5] does the source give for AcYRLGRW-DOTA-[Gd3^+] [HHY-341Gd] here?
Answer: Its T1 is 1368 ± 10 ms.

From patent US20170050988A1, “DOTAM DERIVATIVES FOR THERAPEUTIC USE” (priority 2013, published 2017)
